Measured values: PubChem BioAssay (NCI)
Several values for one entry are separate records, joined by “and”; a condition that tells them apart may be missing. Equal values may be shown once.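 48-hour exposure; five concentrations; linearly interpolated endpoints. GI50 is the concentration that inhibits growth by half. TGI: concentration producing complete growth inhibition.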

Assays:
Test in all cases: NCI anticancer screen, dose series, 48 h
BT-549 breast = tested on: BT-549 breast
CAKI-1 renal = tested on: CAKI-1 renal
HOP-92 NSCLC = tested on: HOP-92 NSCLC
MALME-3M melanoma = tested on: MALME-3M melanoma
MDA-N = tested on: MDA-N
NCI/ADR-RES ovarian = tested on: NCI/ADR-RES ovarian
SK-OV-3 ovarian = tested on: SK-OV-3 ovarian
SNB-75 CNS = tested on: SNB-75 CNS
UACC-62 melanoma = tested on: UACC-62 melanoma
UO-31 renal = tested on: UO-31 renal

NC1=NCC(CN2CCCC2)O1 (stereo not drawn)
TGI (BT-549 breast): > 100 µM | TGI (CAKI-1 renal): > 100 µM | TGI (HOP-92 NSCLC): > 100 µM | TGI (MALME-3M melanoma): > 100 µM | TGI (MDA-N): > 100 µM | TGI (NCI/ADR-RES ovarian): > 100 µM | TGI (SK-OV-3 ovarian): > 100 µM | TGI (SNB-75 CNS): > 100 µM | TGI (UACC-62 melanoma): > 100 µM | TGI (UO-31 renal): > 100 µM

O=C1C=CC(=O)c2c(O)c(N3CCN(CCOCCO)CC3)c(Cl)c(O)c21
GI50 (BT-549 breast): 0.722 µM and 0.422 µM and 2.27 µM | TGI (BT-549 breast): 2.11 µM and 1.49 µM and 3.91 µM | GI50 (CAKI-1 renal): 456 nM [middle of 4 runs] | TGI (HOP-92 NSCLC): 0.45 µM and 0.493 µM and 1.12 µM | GI50 (SK-OV-3 ovarian): 4.59 µM [middle of 4 runs] | TGI (SK-OV-3 ovarian): 13.5 µM and 7.9 µM and 19.9 µM | TGI (SNB-75 CNS): 3.16 µM [middle of 4 runs] | TGI (UACC-62 melanoma): 3.01 µM [middle of 4 runs]

Cc1ccccc1OC(C)C(=O)NN1C(=O)CC(=O)N(c2ccccc2)C1=S (stereo not drawn)
TGI (BT-549 breast): > 100 µM | TGI (CAKI-1 renal): > 100 µM | TGI (HOP-92 NSCLC): > 100 µM | TGI (MALME-3M melanoma): > 100 µM | TGI (NCI/ADR-RES ovarian): > 100 µM | TGI (SK-OV-3 ovarian): > 100 µM | TGI (SNB-75 CNS): > 100 µM | TGI (UACC-62 melanoma): > 100 µM | TGI (UO-31 renal): > 100 µM

CO[C@H]1C[C@H](O[C@H]2CC[C@]3(C=O)[C@H]4CC[C@]5(C)[C@@H](C6=CC(=O)OC6)CC[C@]5(O)[C@@H]4CC[C@]3(O)C2)O[C@H](C)[C@H]1O
TGI (BT-549 breast): 0.818 µM | TGI (CAKI-1 renal): 0.0947 µM | TGI (HOP-92 NSCLC): 1.73 µM | TGI (MALME-3M melanoma): 2.86 µM | TGI (MDA-N): 1.87 µM | TGI (NCI/ADR-RES ovarian): 2.3 µM | TGI (SK-OV-3 ovarian): 0.815 µM | TGI (SNB-75 CNS): 3.13 µM | TGI (UACC-62 melanoma): 1.27 µM | TGI (UO-31 renal): 2.53 µM

COC(=O)C1=C(O)C(C(=O)OC)[C@]2(O)[C@H](C(=O)OC)[C@H]1C[C@@H](c1ccc([N+](=O)[O-])cc1)[C@H]2C(=O)OC (stereo partly drawn)
TGI (BT-549 breast): 39.7 µM | TGI (CAKI-1 renal): > 100 µM | TGI (MALME-3M melanoma): 17.5 µM | TGI (MDA-N): 35.6 µM | TGI (NCI/ADR-RES ovarian): 51.8 µM | TGI (SK-OV-3 ovarian): > 100 µM | TGI (SNB-75 CNS): > 100 µM | TGI (UACC-62 melanoma): 29.1 µM

Cc1csc(NC(=NCCN2CCOCC2)Nc2nc(C)cs2)n1
TGI (CAKI-1 renal): > 100 µM | TGI (HOP-92 NSCLC): > 100 µM | TGI (MALME-3M melanoma): > 100 µM | TGI (NCI/ADR-RES ovarian): > 100 µM | TGI (SK-OV-3 ovarian): > 100 µM | TGI (SNB-75 CNS): > 100 µM | TGI (UACC-62 melanoma): > 100 µM | TGI (UO-31 renal): > 100 µM

NCCC1CN(C(=O)OCc2ccccc2)c2ccccc21 (stereo not drawn)
TGI (BT-549 breast): 40.4 µM | TGI (CAKI-1 renal): > 50.7 µM | TGI (HOP-92 NSCLC): 26.9 µM | TGI (MALME-3M melanoma): 29.1 µM | TGI (MDA-N): 26.6 µM | TGI (NCI/ADR-RES ovarian): 36.7 µM | TGI (SK-OV-3 ovarian): > 59.6 µM | TGI (SNB-75 CNS): 43.3 µM | TGI (UACC-62 melanoma): 33.2 µM | TGI (UO-31 renal): 27.3 µM

O=C(NNCc1ccc(Cl)cc1)Nc1cccc2ccccc12
TGI (BT-549 breast): > 100 µM | TGI (CAKI-1 renal): > 100 µM | TGI (HOP-92 NSCLC): > 100 µM | TGI (MALME-3M melanoma): > 100 µM | TGI (MDA-N): > 100 µM | TGI (NCI/ADR-RES ovarian): > 100 µM | TGI (SNB-75 CNS): > 100 µM | TGI (UACC-62 melanoma): > 100 µM | TGI (UO-31 renal): > 100 µM

COC(=O)c1c(-c2ccc(Cl)cc2)cc2c3ccccc3n(C)c2c1C(=O)OC
TGI (BT-549 breast): > 100 µM | TGI (CAKI-1 renal): > 100 µM | TGI (HOP-92 NSCLC): > 100 µM | TGI (MALME-3M melanoma): > 100 µM | TGI (MDA-N): > 100 µM | TGI (NCI/ADR-RES ovarian): > 100 µM | TGI (SK-OV-3 ovarian): > 100 µM | TGI (UACC-62 melanoma): > 100 µM | TGI (UO-31 renal): > 100 µM

COc1ccccc1CNCCCCCCCCCCCCN1C(=O)c2ccc3c4c(ccc(c24)C1=O)C(=O)N(CCCCCCCCCCCCNCc1ccccc1OC)C3=O
GI50 (BT-549 breast): 7.74 µM | TGI (BT-549 breast): 20.2 µM | GI50 (CAKI-1 renal): > 50 µM | TGI (CAKI-1 renal): > 50 µM | GI50 (MALME-3M melanoma): > 50 µM | TGI (MALME-3M melanoma): > 50 µM | GI50 (SK-OV-3 ovarian): > 50 µM | TGI (SK-OV-3 ovarian): > 50 µM | GI50 (SNB-75 CNS): 2 µM | TGI (SNB-75 CNS): 46.9 µM | GI50 (UACC-62 melanoma): > 50 µM | TGI (UACC-62 melanoma): > 50 µM
